From the NIST ThermoML archive (doi:10.1016/j.jct.2012.06.031)
± gives the expanded uncertainty stated by the source.

Assay: xn = mol fraction of the nth substance listed
Details: 101 kPa, Liquid; for viscosity: Concentric cylinders viscometry; for mass density: Vibrating tube method

In the case of `c1ccncc1` [pyridine] + CCCO, the viscosity (308.15 K, x1 = 0.1001) is reported as 1.355 ± 0.0097 mPa·s, the viscosity (308.15 K, x1 = 0.1998) is reported as 1.179 ± 0.0092 mPa·s and the viscosity (308.15 K, x1 = 0.2999) is reported as 1.065 ± 0.009 mPa·s. The viscosity (308.15 K, x1 = 0.3998) was 0.9819 ± 0.0088 mPa·s, the viscosity (308.15 K, x1 = 0.5) was 0.9149 ± 0.0086 mPa·s and the viscosity (308.15 K, x1 = 0.5999) was 0.8753 ± 0.0086 mPa·s. For the same molecule, the viscosity (308.15 K, x1 = 0.7) was 0.8408 ± 0.0085 mPa·s, the viscosity (308.15 K, x1 = 0.8) was 0.8222 ± 0.0084 mPa·s and the viscosity (308.15 K, x1 = 0.8998) was 0.8059 ± 0.0084 mPa·s. The viscosity (308.15 K, x1 = 1) was 0.7837 ± 0.0084 mPa·s, the mass density (308.15 K, x1 = 0.1001) was 812.466 ± 0.15 kg/m3 and the mass density (308.15 K, x1 = 0.1998) was 832.074 ± 0.15 kg/m3. For the same molecule, the mass density (308.15 K, x1 = 0.2999) was 850.857 ± 0.14 kg/m3, the mass density (308.15 K, x1 = 0.3998) was 868.942 ± 0.14 kg/m3 and the mass density (308.15 K, x1 = 0.5) was 886.415 ± 0.14 kg/m3. The mass density (308.15 K, x1 = 0.5999) was 903.494 ± 0.13 kg/m3, the mass density (308.15 K, x1 = 0.7) was 920.29 ± 0.13 kg/m3 and the mass density (308.15 K, x1 = 0.8) was 936.687 ± 0.13 kg/m3. The mass density (308.15 K, x1 = 0.8998) was 952.593 ± 0.12 kg/m3, the mass density (308.15 K, x1 = 1) was 967.913 ± 0.12 kg/m3 and the viscosity (313.15 K, x1 = 0.1001) was 1.205 ± 0.0093 mPa·s. It also gave a viscosity (313.15 K, x1 = 0.1998) of 1.076 ± 0.009 mPa·s, a viscosity (313.15 K, x1 = 0.2999) of 0.9804 ± 0.0088 mPa·s and a viscosity (313.15 K, x1 = 0.3998) of 0.9082 ± 0.0086 mPa·s. It also gave a viscosity (313.15 K, x1 = 0.5) of 0.8506 ± 0.0085 mPa·s, a viscosity (313.15 K, x1 = 0.5999) of 0.8167 ± 0.0084 mPa·s and a viscosity (313.15 K, x1 = 0.7) of 0.786 ± 0.0084 mPa·s. It also gave a viscosity (313.15 K, x1 = 0.8) of 0.7718 ± 0.0083 mPa·s, a viscosity (313.15 K, x1 = 0.8998) of 0.7566 ± 0.0083 mPa·s and a viscosity (313.15 K, x1 = 1) of 0.7354 ± 0.0083 mPa·s. The mass density (313.15 K, x1 = 0.1001) was 808.203 ± 0.15 kg/m3, the mass density (313.15 K, x1 = 0.1998) was 827.676 ± 0.15 kg/m3 and the mass density (313.15 K, x1 = 0.2999) was 846.364 ± 0.14 kg/m3. The mass density (313.15 K, x1 = 0.3998) was 864.355 ± 0.14 kg/m3, the mass density (313.15 K, x1 = 0.5) was 881.735 ± 0.14 kg/m3 and the mass density (313.15 K, x1 = 0.5999) was 898.73 ± 0.13 kg/m3. The mass density (313.15 K, x1 = 0.7) was 915.449 ± 0.13 kg/m3, the mass density (313.15 K, x1 = 0.8) was 931.765 ± 0.13 kg/m3 and the mass density (313.15 K, x1 = 0.8998) was 947.604 ± 0.12 kg/m3. For the same molecule, the mass density (313.15 K, x1 = 1) was 962.849 ± 0.12 kg/m3, the viscosity (318.15 K, x1 = 0.1001) was 1.103 ± 0.0091 mPa·s and the viscosity (318.15 K, x1 = 0.1998) was 0.9855 ± 0.0088 mPa·s. It also gave a viscosity (318.15 K, x1 = 0.2999) of 0.9038 ± 0.0086 mPa·s, a viscosity (318.15 K, x1 = 0.3998) of 0.8426 ± 0.0085 mPa·s and a viscosity (318.15 K, x1 = 0.5) of 0.7926 ± 0.0084 mPa·s. It also gave a viscosity (318.15 K, x1 = 0.5999) of 0.7629 ± 0.0083 mPa·s, a viscosity (318.15 K, x1 = 0.7) of 0.7363 ± 0.0083 mPa·s and a viscosity (318.15 K, x1 = 0.8) of 0.7244 ± 0.0082 mPa·s. The viscosity (318.15 K, x1 = 0.8998) was 0.711 ± 0.0082 mPa·s, the viscosity (318.15 K, x1 = 1) was 0.6912 ± 0.0082 mPa·s and the mass density (318.15 K, x1 = 0.1001) was 803.899 ± 0.15 kg/m3. The mass density (318.15 K, x1 = 0.1998) was 823.264 ± 0.15 kg/m3, the mass density (318.15 K, x1 = 0.2999) was 841.834 ± 0.14 kg/m3 and the mass density (318.15 K, x1 = 0.3998) was 859.731 ± 0.14 kg/m3. The mass density (318.15 K, x1 = 0.5) was 877.027 ± 0.14 kg/m3, the mass density (318.15 K, x1 = 0.5999) was 893.938 ± 0.13 kg/m3 and the mass density (318.15 K, x1 = 0.7) was 910.581 ± 0.13 kg/m3. The mass density (318.15 K, x1 = 0.8) was 926.83 ± 0.13 kg/m3, the mass density (318.15 K, x1 = 0.8998) was 942.596 ± 0.12 kg/m3 and the mass density (318.15 K, x1 = 1) was 957.769 ± 0.12 kg/m3. For the same molecule, the viscosity (323.15 K, x1 = 0.1001) was 1.009 ± 0.0089 mPa·s, the viscosity (323.15 K, x1 = 0.1998) was 0.9116 ± 0.0086 mPa·s and the viscosity (323.15 K, x1 = 0.2999) was 0.844 ± 0.0085 mPa·s. The viscosity (323.15 K, x1 = 0.3998) was 0.7875 ± 0.0084 mPa·s, the viscosity (323.15 K, x1 = 0.5) was 0.7452 ± 0.0083 mPa·s and the viscosity (323.15 K, x1 = 0.5999) was 0.719 ± 0.0082 mPa·s. The viscosity (323.15 K, x1 = 0.7) was 0.6954 ± 0.0082 mPa·s, the viscosity (323.15 K, x1 = 0.8) was 0.6813 ± 0.0081 mPa·s and the viscosity (323.15 K, x1 = 0.8998) was 0.6741 ± 0.0081 mPa·s. The viscosity (323.15 K, x1 = 1) was 0.6507 ± 0.0081 mPa·s, the mass density (323.15 K, x1 = 0.1001) was 799.541 ± 0.15 kg/m3 and the mass density (323.15 K, x1 = 0.1998) was 818.793 ± 0.15 kg/m3. The mass density (323.15 K, x1 = 0.2999) was 837.265 ± 0.14 kg/m3, the mass density (323.15 K, x1 = 0.3998) was 855.071 ± 0.14 kg/m3 and the mass density (323.15 K, x1 = 0.5) was 872.286 ± 0.14 kg/m3. It also gave a mass density (323.15 K, x1 = 0.5999) of 889.121 ± 0.13 kg/m3, a mass density (323.15 K, x1 = 0.7) of 905.688 ± 0.13 kg/m3 and a mass density (323.15 K, x1 = 0.8) of 921.867 ± 0.13 kg/m3. The mass density (323.15 K, x1 = 0.8998) was 937.566 ± 0.13 kg/m3 and the mass density (323.15 K, x1 = 1) was 952.673 ± 0.12 kg/m3.
